Measured values published in ChEMBL document CHEMBL1135286, “Synthesis and in vitro evaluation of a novel iodinated resiniferatoxin derivative that is an agonist at the human vanilloid VR1 receptor” (Bioorg Med Chem Lett, 2002).

How the values were obtained:
[1] = biological target: T1, Transient receptor potential cation channel subfamily V member 1 (Homo sapiens, UniProt Q8NER1); assay: Induced [Ca2+] influx in Vanilloid receptor subtype 1 expressing HEK 293 cells; assay type: functional, cell-based, HEK293
[2] = biological target: T1, Transient receptor potential cation channel subfamily V member 1; assay: Inhibition of [3H]RTX binding to human Vanilloid receptor subtype 1 expressed in HEK293 cells; assay type: cell-based
[3] = biological target: Transient receptor potential cation channel subfamily V member 1 (Rattus norvegicus) (UniProt O35433); assay: Percent induction of [Ca2+] influx compared to subsequent 80% maximal capsaicin response in rat Vanilloid receptor 1 expressing HEK293 cells; assay type: functional, cell-based
[4] = biological target: T1, Transient receptor potential cation channel subfamily V member 1; assay: Percent induction of [Ca2+] influx compared to subsequent 80% maximal capsaicin response in human vanilloid receptor 1 expressing HEK293 cells; assay type: functional, cell-based

T1 sequence (Q8NER1 whole entry): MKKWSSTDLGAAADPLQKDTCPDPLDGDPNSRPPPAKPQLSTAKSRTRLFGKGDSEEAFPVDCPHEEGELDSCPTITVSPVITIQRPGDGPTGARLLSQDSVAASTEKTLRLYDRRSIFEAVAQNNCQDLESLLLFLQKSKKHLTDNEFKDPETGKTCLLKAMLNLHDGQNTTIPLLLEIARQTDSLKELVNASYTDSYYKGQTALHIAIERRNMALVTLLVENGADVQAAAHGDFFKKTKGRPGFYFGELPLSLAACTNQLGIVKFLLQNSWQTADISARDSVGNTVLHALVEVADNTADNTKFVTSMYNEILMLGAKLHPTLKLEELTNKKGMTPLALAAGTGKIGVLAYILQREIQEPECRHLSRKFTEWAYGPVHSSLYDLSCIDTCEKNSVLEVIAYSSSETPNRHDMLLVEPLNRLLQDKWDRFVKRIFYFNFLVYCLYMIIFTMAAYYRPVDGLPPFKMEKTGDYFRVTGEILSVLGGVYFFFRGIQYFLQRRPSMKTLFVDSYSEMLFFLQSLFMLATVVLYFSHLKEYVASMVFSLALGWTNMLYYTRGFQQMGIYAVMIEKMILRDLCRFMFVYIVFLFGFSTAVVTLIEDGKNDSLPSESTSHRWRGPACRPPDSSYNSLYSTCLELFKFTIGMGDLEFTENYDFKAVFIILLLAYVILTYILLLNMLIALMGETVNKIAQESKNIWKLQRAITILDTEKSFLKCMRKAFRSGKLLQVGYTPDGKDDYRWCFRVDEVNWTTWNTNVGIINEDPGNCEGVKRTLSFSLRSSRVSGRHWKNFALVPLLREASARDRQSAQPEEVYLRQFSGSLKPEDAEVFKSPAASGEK
Transient receptor potential cation channel subfamily V member 1 (Rattus norvegicus), sequence (O35433 whole entry): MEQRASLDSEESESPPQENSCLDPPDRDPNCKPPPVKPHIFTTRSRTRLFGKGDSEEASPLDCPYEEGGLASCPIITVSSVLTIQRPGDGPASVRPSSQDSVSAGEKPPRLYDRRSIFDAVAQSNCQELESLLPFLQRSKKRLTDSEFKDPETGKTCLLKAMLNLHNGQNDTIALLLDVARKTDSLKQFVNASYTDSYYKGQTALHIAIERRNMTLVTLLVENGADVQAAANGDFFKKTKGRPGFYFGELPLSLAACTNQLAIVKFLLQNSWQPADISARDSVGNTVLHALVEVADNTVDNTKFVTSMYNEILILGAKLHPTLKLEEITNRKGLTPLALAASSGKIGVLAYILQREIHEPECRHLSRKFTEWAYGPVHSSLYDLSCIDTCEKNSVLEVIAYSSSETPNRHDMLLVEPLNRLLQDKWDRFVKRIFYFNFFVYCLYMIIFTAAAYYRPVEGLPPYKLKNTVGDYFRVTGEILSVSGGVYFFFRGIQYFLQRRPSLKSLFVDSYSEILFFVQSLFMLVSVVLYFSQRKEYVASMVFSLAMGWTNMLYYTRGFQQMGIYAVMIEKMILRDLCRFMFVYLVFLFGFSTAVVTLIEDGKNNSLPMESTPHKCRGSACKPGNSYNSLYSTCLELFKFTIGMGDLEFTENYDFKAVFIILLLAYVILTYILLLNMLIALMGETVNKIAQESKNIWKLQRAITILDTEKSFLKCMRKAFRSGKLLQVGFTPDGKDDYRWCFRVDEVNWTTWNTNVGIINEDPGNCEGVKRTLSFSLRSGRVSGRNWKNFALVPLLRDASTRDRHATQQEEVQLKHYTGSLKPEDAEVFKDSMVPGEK

SMILES | IC50 [1] | Ki [2] | Efficacy [3] | Efficacy [4] | EC50 [1]
C=C(C)[C@]12C[C@@H](C)[C@@]34OC(Cc5ccccc5)(O[C@@H]1[C@@H]3C=C(COC(=O)Cc1ccc(O)c(OC)c1I)C[C@]1(O)C(=O)C(C)=C[C@@H]41)O2 | 27 nM | 1.4 nM | – | – | –
C=C(C)[C@]12C[C@@H](C)[C@@]34O[C@](Cc5ccccc5)(O[C@@H]1[C@@H]3C=C(COC(=O)Cc1cc(OC)c(O)cc1I)C[C@]1(O)C(=O)C(C)=C[C@@H]41)O2 | – | 0.71 nM | 92% | 50% | 130 nM
C=C(C)[C@]12C[C@@H](C)[C@@]34O[C@](Cc5ccccc5)(O[C@@H]1[C@@H]3C=C(COC(=O)Cc1ccc(O)c(OC)c1)C[C@]1(O)C(=O)C(C)=CC41)O2 (single isomer, unassigned) [RESINIFERATOXIN] | – | 0.48 nM | – | 116% | 1.9 nM
C=C(C)[C@]12C[C@@H](C)[C@@]34O[C@](Cc5ccccc5)(O[C@@H]1[C@@H]3C=C(COC(=O)Cc1cc(OC)c(OC(C)=O)cc1I)C[C@]1(O)C(=O)C(C)=C[C@@H]41)O2 | – | 1.46 nM | – | 75% | 935 nM
